Source: patent US7595401B2, “Therapeutic compounds and their use in cancer” (Myriad Pharmaceuticals, Inc., priority 2006, dated 2009)

Test system: purified human Hsp90
Test: Binding Assay: fluorescence polarization with BODIPY-labeled geldanamycin
Conditions: BODIPY-GM 10 nM, Hsp90 30 nM
Summary of the method: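 Compounds in 2% DMSO final compete with 10 nM BODIPY-GM for 30 nM purified human Hsp90, incubated overnight at room temperature in pH 7.3 HEPES buffer containing Na2MoO4 and DTT. Polarization (mP, ex/em 485/530) normalized to DMSO gives percent inhibition; autofluorescence-confounded data excluded.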

| SMILES | % Inhibition at 5 μM Compound Concentration [%] | IC50 [µM] |
| --- | --- | --- |
| CCCCNC(=O)Nc1ccc(CCn2cnc(N)c3nc(Sc4cc(OC)ccc4OC)nc2-3)cc1 [Example 278, N-[4-(2-{6-Amino-8-[(2,5-dimethoxyphenyl)thio]-3H-purin-3-yl}ethyl)phenyl]-N′-butylurea] | 1.0 |  |
| COc1ccc(OC)c(Sc2nc3c(N)ncnc3n2CC2(c3ccc(Cl)cc3)CC2)c1 [Example 279, 9-{[1-(4-Chlorophenyl)cyclopropyl]methyl}-8-[(2,5-dimethoxyphenyl)thio]-9H-purin-6-amine] |  | > 25 |
| COc1ccc(OC)c(Sc2nc3c(N)ncn(CC4(c5ccc(Cl)cc5)CC4)c-3n2)c1 [Example 280, 3-{[1-(4-Chlorophenyl)cyclopropyl]methyl}-8-[(2,5-dimethoxyphenyl)thio]-3H-purin-6-amine] | 0.0 |  |
| CCCCNC(=O)Nc1ccc(CCn2c(Sc3cc4c(cc3Br)OCO4)nc3c(N)ncnc32)cc1 [Example 281, N-[4-(2-{6-Amino-8-[(6-bromo-1,3-benzodioxol-5-yl)thio]-9H-purin-9-yl}ethyl)phenyl]-N′-butylurea] |  | 0.12 |
| Nc1ccccc1CCn1c(Sc2cc3c(cc2Br)OCO3)nc2c(N)ncnc21 [Example 282, 9-[2-(2-Aminophenyl)ethyl]-8-[(6-bromo-1,3-benzodioxol-5-yl)thio]-9H-purin-6-amine] |  | 0.055 |
| Nc1ncnc2c1nc(Sc1ccc3ncoc3c1)n2CCc1ccccc1 [Example 283, 8-(1,3-Benzoxazol-6-ylthio)-9-(2-phenylethyl)-9H-purin-6-amine] |  | 12 |
| Nc1ncn(CCc2ccccc2)c2nc(Sc3ccc4ncoc4c3)nc1-2 [Example 284, 8-(1,3-Benzoxazol-6-ylthio)-3-(2-phenylethyl)-3H-purin-6-amine] | 3.0 |  |
| CCC(Cn1c(Sc2cc(OC)ccc2OC)nc2c(N)ncnc21)c1ccccc1 (stereo not shown) [Example 285, 8-[(2,5-Dimethoxyphenyl)thio]-9-(2-phenylbutyl)-9H-purin-6-amine] |  | 1.3 |
| COc1cc(Sc2nc3c(N)ncnc3n2CCc2ccccc2)c(Cl)c(OC)c1OC [Example 286, 8-[(2-Chloro-3,4,5-trimethoxyphenyl)thio]-9-(2-phenylethyl)-9H-purin-6-amine] |  | 3 |
| COc1ccccc1CCn1c(Sc2cc3c(cc2Br)OCO3)nc2c(N)ncnc21 [Example 287, 8-[(6-Bromo-1,3-benzodioxol-5-yl)thio]-9-[2-(2-methoxyphenyl)ethyl]-9H-purin-6-amine] |  | 0.06 |
| COc1cccc(Sc2nc3c(N)ncn(CCc4ccccc4)c-3n2)c1 [Example 288, 8-[(3-Methoxyphenyl)thio]-3-(2-phenylethyl)-3H-purin-6-amine] |  | 4 |
| Nc1ncnc2c1nc(Sc1ccc3c(c1)OCO3)n2CCc1ccccc1Cl [Example 289, 8-(1,3-Benzodioxol-5-ylthio)-9-[2-(2-chlorophenyl)ethyl]-9H-purin-6-amine] |  | 1.6 |
| Nc1ncnc2c1nc(Sc1cc3c(cc1Br)OCO3)n2CCc1ccccc1C(F)(F)F [Example 290, 8-[(6-Bromo-1,3-benzodioxol-5-yl)thio]-9-{2-[2-(trifluoromethyl)phenyl]ethyl}-9H-purin-6-amine] |  | 0.07 |
| Nc1ncn(CCc2ccccc2C(F)(F)F)c2nc(Sc3cc4c(cc3Br)OCO4)nc1-2 [Example 291, 8-[(6-Bromo-1,3-benzodioxol-5-yl)thio]-3-{2-[2-(trifluoromethyl)phenyl]ethyl}-3H-purin-6-amine] | 0.0 |  |
| Nc1ncnc2c1nc(Sc1ccc3c(c1)OC(F)(F)O3)n2CCc1ccccc1 [Example 292, 8-[(2,2-Difluoro-1,3-benzodioxol-5-yl)thio]-9-(2-phenylethyl)-9H-purin-6-amine] |  | > 25 |
| Nc1ncn(CCc2ccccc2)c2nc(Sc3ccc4c(c3)OC(F)(F)O4)nc1-2 [Example 293, 8-[(2,2-Difluoro-1,3-benzodioxol-5-yl)thio]-3-(2-phenylethyl)-3H-purin-6-amine] | 0.0 |  |
| Nc1ncnc2c1nc(Sc1ccc3c(c1)OC(F)(F)O3)n2CCc1ccccc1Cl [Example 294, 9-[2-(2-Chlorophenyl)ethyl]-8-[(2,2-difluoro-1,3-benzodioxol-5-yl)thio]-9H-purin-6-amine] |  | > 25 |
| Nc1ncn(CCc2ccccc2Cl)c2nc(Sc3ccc4c(c3)OC(F)(F)O4)nc1-2 [Example 295, 3-[2-(2-Chlorophenyl)ethyl]-8-[(2,2-difluoro-1,3-benzodioxol-5-yl)thio]-3H-purin-6-amine] | 0.0 |  |
| COc1ccc(CCn2c(Sc3cc4c(cc3Br)OCO4)nc3c(N)ncnc32)cc1OC [Example 296, 8-[(6-Bromo-1,3-benzodioxol-5-yl)thio]-9-[2-(3,4-dimethoxyphenyl)ethyl]-9H-purin-6-amine] |  | 0.35 |

More lines, now with the values ahead:

| % Inhibition at 5 μM Compound Concentration [%] | IC50 [µM] | SMILES |
| --- | --- | --- |
| 8.0 |  | COc1ccc(CCn2cnc(N)c3nc(Sc4cc5c(cc4Br)OCO5)nc2-3)cc1OC [Example 297, 8-[(6-Bromo-1,3-benzodioxol-5-yl)thio]-3-[2-(3,4-dimethoxyphenyl)ethyl]-3H-purin-6-amine] |
|  | > 25 | COc1cccc(Sc2nc3c(N)ncnc3n2CC(=O)c2ccccc2)c1 [Example 298, 2-{6-Amino-8-[(3-methoxyphenyl)thio]-9H-purin-9-yl}-1-phenylethanone] |
| 0.0 |  | COc1cccc(Sc2nc3c(N)ncn(CC(=O)c4ccccc4)c-3n2)c1 [Example 299, 2-{6-Amino-8-[(3-methoxyphenyl)thio]-3H-purin-3-yl}-1-phenylethanone] |
|  | 0.4 | Nc1ncnc2c1nc(Sc1cc3c(cc1Br)OCO3)n2CCc1ccc(O)cc1 [Example 300, 4-(2-{6-Amino-8-[(6-bromo-1,3-benzodioxol-5-yl)thio]-9H-purin-9-yl}ethyl)phenol] |
| 5.0 |  | Nc1ncn(CCc2ccc(O)cc2)c2nc(Sc3cc4c(cc3Br)OCO4)nc1-2 [Example 301, 4-(2-{6-Amino-8-[(6-bromo-1,3-benzodioxol-5-yl)thio]-3H-purin-3-yl}ethyl)phenol] |
|  | > 25 | Nc1ncnc2c1nc(Sc1cc3c(cc1Br)OCO3)n2CCc1ccc2ccccc2c1 [Example 302, 8-[(6-Bromo-1,3-benzodioxol-5-yl)thio]-9-[2-(2-naphthyl)ethyl]-9H-purin-6-amine] |
| 21.0 |  | Nc1ncn(CCc2ccc3ccccc3c2)c2nc(Sc3cc4c(cc3Br)OCO4)nc1-2 [Example 303, 8-[(6-Bromo-1,3-benzodioxol-5-yl)thio]-3-[2-(2-naphthyl)ethyl]-3H-purin-6-amine] |
|  | > 25 | COc1ccc(C#N)cc1Sc1nc2c(N)ncnc2n1CCc1ccccc1 [Example 304, 3-{[6-Amino-9-(2-phenylethyl)-9H-purin-8-yl]thio}-4-methoxybenzonitrile] |
| 29.0 |  | COc1ccc(C#N)cc1Sc1nc2c(N)ncn(CCc3ccccc3)c-2n1 [Example 305, 3-{[6-Amino-3-(2-phenylethyl)-3H-purin-8-yl]thio}-4-methoxybenzonitrile] |
|  | > 25 | COc1ccc(C#N)cc1Sc1nc2c(N)ncnc2n1CCc1ccccc1Cl [Example 306, 3-({6-Amino-9-[2-(2-chlorophenyl)ethyl]-9H-purin-8-yl}thio)-4-methoxybenzonitrile] |
| 40.0 |  | COc1ccc(C#N)cc1Sc1nc2c(N)ncn(CCc3ccccc3Cl)c-2n1 [Example 307, 3-({6-Amino-3-[2-(2-chlorophenyl)ethyl]-3H-purin-8-yl}thio)-4-methoxybenzonitrile] |
|  | 0.18 | COc1cccc(CCn2c(Sc3cc4c(cc3Br)OCO4)nc3c(N)ncnc32)c1 [Example 308, 8-[(6-Bromo-1,3-benzodioxol-5-yl)thio]-9-[2-(3-methoxyphenyl)ethyl]-9H-purin-6-amine] |
| 25.0 |  | COc1cccc(CCn2cnc(N)c3nc(Sc4cc5c(cc4Br)OCO5)nc2-3)c1 [Example 309, 8-[(6-Bromo-1,3-benzodioxol-5-yl)thio]-3-[2-(3-methoxyphenyl)ethyl]-3H-purin-6-amine] |
|  | > 25 | COc1ccc(I)c(Sc2nc3c(N)ncnc3n2CCc2ccc(I)cc2)c1 [Example 310, 8-[(2-Iodo-5-methoxyphenyl)thio]-9-[2-(4-iodophenyl)ethyl]-9H-purin-6-amine] |
| 0.0 |  | COc1ccc(I)c(Sc2nc3c(N)ncn(CCc4ccc(I)cc4)c-3n2)c1 [Example 311, 8-[(2-Iodo-5-methoxyphenyl)thio]-3-[2-(4-iodophenyl)ethyl]-3H-purin-6-amine] |
|  | > 25 | COc1ccc(F)cc1Sc1nc2c(N)ncnc2n1CCc1ccccc1 [Example 312, 8-[(5-Fluoro-2-methoxyphenyl)thio]-9-(2-phenylethyl)-9H-purin-6-amine] |
| 3.0 |  | COc1ccc(F)cc1Sc1nc2c(N)ncn(CCc3ccccc3)c-2n1 [Example 313, 8-[(5-Fluoro-2-methoxyphenyl)thio]-3-(2-phenylethyl)-3H-purin-6-amine] |
|  | 6.8 | COc1ccc(C)cc1Sc1nc2c(N)ncnc2n1CCc1ccccc1 [Example 314, 8-[(2-Methoxy-5-methylphenyl)thio]-9-(2-phenylethyl)-9H-purin-6-amine] |
| 21.0 |  | COc1ccc(C)cc1Sc1nc2c(N)ncn(CCc3ccccc3)c-2n1 [Example 315, 8-[(2-Methoxy-5-methylphenyl)thio]-3-(2-phenylethyl)-3H-purin-6-amine] |
|  | 18 | COc1ccc(F)cc1Sc1nc2c(N)ncnc2n1CCc1ccccc1Cl [Example 316, 9-[2-(2-Chlorophenyl)ethyl]-8-[(5-fluoro-2-methoxyphenyl)thio]-9H-purin-6-amine] |
| 0.0 |  | COc1ccc(F)cc1Sc1nc2c(N)ncn(CCc3ccccc3Cl)c-2n1 [Example 317, 3-[2-(2-Chlorophenyl)ethyl]-8-[(5-fluoro-2-methoxyphenyl)thio]-3H-purin-6-amine] |
